Where “and” joins values, the source holds several entries; their conditions need not be identical. Equal entries are not always repeated. Where two headings read alike, the source gives them in different places. Starred links: 1 amine or outer side, 2 acyl side, 3 side chain; linkers in the order of their positions; H or OH if unused. Positions of bridges follow the written chain, without caps; N, C: chain ends. Non-standard residues stand in square brackets, D forms with d. Residues, ends and D or L forms follow the SMILES beside them. Chains are numbered I, II in the order given. Actinocin(9to1) = Cc1c2oc3c(C)ccc(C(=O)[*:1])c3nc-2c(C(=O)[*:2])c(N)c1=O; NMeV = CN[C@H](C(=O)O)C(C)C; Sar = CNCC(=O)O
Tests used:
[1] = test system: Medial smooth muscle cells (SMC) from rat aorta; experiment: Inhibition of SMC proliferation (thymidine incorporation); assay type: cell-based; details: read-out: IC50 (concentration at which 50% of the cells stop proliferating)
Description: Medial smooth muscle cells (SMC) were isolated from rat aorta and cultured according to explant methods known to one of ordinary skill in the art. Cells were harvested via trypsinization and subcultivated. Cells were identified as vascular SMC through their characteristic hill-and-valley growth pattern as well as indirect immunofluorescence with monoclonal anti SMC α-actin. Studies were performed with cells at passage 3-4. SMC monlayers were established on 24 well culture dishes, scrape wounded and treated with actinomycin D, mytomycin and docetaxel. The cells were exposed to the drug solution of different concentrations for 2 hours and then washed with buffered saline solution. The proliferation of the cells was quantified by standard technique of thymidine incorporation.
The IC50 (concentration at which 50% of the cells stop proliferating) of actinomycin D was 10^−9M as compared to 5×10^−5M for mitomycin and 10^−6M for docetaxel.

[2] = test system: neointimal formation in the coronary arteries; experiment: Porcine coronary stent injury model, drug delivered with microporous balloon catheter; assay type: in vivo, Domestic swine
Description: Porcine coronary models were used to assess the degree of the inhibition of neointimal formation in the coronary arteries of a porcine stent injury model by Actinomycin D, delivered with a microporous balloon catheter (1×10^6 pores/cm^2 with size ranging from 0.2-0.8 micron).
The preclinical animal testing was performed in accordance with the NIH Guide for Care and Use of Laboratory Animals. Domestic swine were utilized to evaluate effect of the drug on the inhibition of the neointimal formation. Each testing procedure, excluding the angiographic analysis at the follow-up endpoints, was conducted using sterile techniques. During the study procedure, the activated clotting time (ACT) was monitored regularly to ensure appropriate anticoagulation. Base line blood samples were collected for each animal before initiation of the procedure. Quantitative coronary angiographic analysis (QCA) and intravascular ultrasound (IVUS) analysis was used for vessel size assessment.
The vessels at the sites of the delivery were denuded by inflation of the PTCA balloons to 1:1 balloon to artery ratio and moving the balloons back and forth 5 times. Actinomycin D was delivered to the denuded sites at 3.5 atm (3.61 kg/sq. cm) for 2 minutes using the microporous balloon catheters before stent deployment. The average volume of delivery was about 3.3+/−1.2 ml. Following drug delivery, stents were deployed at the delivery site such that final stent to artery ratio was 1.1:1.
QCA and IVUS analyses were used for stent deployment guidance. Pre-stenting IVUS measurements of the lumen size at the targeted vessel sites were performed for determination of the balloon (size) inflation pressure. Quantitative analysis of the stented coronary arteries to compare pre-stenting, post-stenting, follow-up minimal luminal diameters, stent recoil, and balloon/stent to artery ratio were performed. Following stent implantation and final angiogram, all devices were withdrawn and the wounds closed; the animals were allowed to recover from anesthesia as managed by the attending veterinarian or animal care professionals at the research center.
Upon return to the research laboratory at the 28-day endpoint, angiographic assessments were performed. Coronary artery blood flow was assessed and the stented vessels were evaluated to determine minimal lumen diameter. The animals were euthanized following this procedure at the endpoint. Following euthanasia, the hearts were pressure perfusion fixed with formalin and prepared for histological analysis, encompassing light microscopy, and morphometry. Morphometric analysis of the stented arteries included assessment of the position of the stent struts and determination of vessel/lumen areas, percent (%) stenosis, injury scores, intimal and medial areas and intima/media ratios. Percent stenosis is quantitated by the following equation: 100(IEL area−lumen area)/IEL area where IEL is the internal elastic lamia.
The control group of animals received delivery of water instead of the drug. The test group of animals received actinomycin D in two different concentration of 10^−5M and 10^−4M. […] FIGS. 2A and 2B illustrate sample pictures of the histology slides of the coronary vessels from the control and the Dose 1 group, respectively.

[3] = test system: porcine coronary arteries (EEL/IEL area); experiment: Positive remodeling by stents coated with EVAL impregnated with actinomycin D in porcine coronary arteries; assay type: in vivo
Excerpt: “Positive remodeling” is generally defined as the ability of the vessel walls to structurally adapt, by increasing in lumen size, to chronic stimuli. A positively remodeled lumen wall has a greater diameter or size as compared to a lumen wall which has not been subjected to the remodeling effect. Accordingly, the flow of blood through the remodeled site is increased—flow which would have otherwise been reduced because of, for example, the presence of plaque build-up or migration and proliferation of cells. The index of remodeling is defined by the ratio of the area circumscribed by the external elastic lamia (EEL) of the lesion site to the area circumscribed by the EEL of a reference site. As a result of the positive remodeling of the EEL, the internal elastic lamina (IEL), in response, can also increases in area or diameter.
In vivo data is provided illustrated positive remodeling caused by the application of actinomycin D. Stents coated with EVAL impregnated with actinomycin D and a control group of stents coated with EVAL free from actinomycin D were implanted in porcine coronary arteries. The animals were sacrificed at the end of 28 days. […] The index of remodeling was 1.076 (8.54/7.94).
FIGS. 3A and 3B illustrate sample pictures of the histology slides of the coronary vessels from the control group 64 RCA ([…]) and the actinomycin D loaded stent group 68 LAD (Left Anterior Descending), respectively. The stent used was an Advanced Cardiovascular Systems Multi-Link Duet™ (stainless steel). As is illustrated by FIG. 3B, the positive remodeling of IEL 10, caused by the application of actinomycin D, creates a gap between stent struts 12 and IEL 10. Thrombus deposites, illustrated by reference number 14, are formed in the gap over time. The use of a self-expandable stent eliminates the formation of the gap as the stent self-expands in response to the positive remodeling of IEL. Thrombus deposits can be, accordingly, eliminated.

[4] = Dose 1, 1E−05 M, n = 30, 28-day endpoint
[5] = Dose 2, 1E−04 M, n = 21, 28-day endpoint
[6] = average of 24 vessel sections, 28 days
[7] = one value per vessel section (ID # in the cell to the left), 28 days
[8] = rat aortic SMC, scrape wounded, 2 hours drug exposure, thymidine incorporation

Row | SMILES | IC50 ([1]; Rattus norvegicus, 2 h) [nM] | Percent Diameter Stenosis, angiographic data (QCA) ([2]; Dose 1, 1E−05 M, n = 10, 28-day endpoint) | Percent Stenosis (IEL area-lumen area)/IEL area, histomorphometric data [2, 4] | Residual Lumen (Lumen area)/IEL area, histomorphometric data [2, 4] | Percent Diameter Stenosis, angiographic data (QCA) ([2]; Dose 2, 1E−04 M, n = 7, 28-day endpoint) | Percent Stenosis (IEL area-lumen area)/IEL area, histomorphometric data [2, 5] | Residual Lumen (Lumen area)/IEL area, histomorphometric data [2, 5] | EEL area compared with control vessels ([3]; 28 days, actinomycin D-loaded vessels vs control vessels) | AVG % EEL growth ([3]; ActD vs EVAL) [%] | AVG % IEL growth ([3]; ActD vs EVAL) [%] | index of remodeling ([3]; EEL area ratio 8.54/7.94, actinomycin D-loaded vs EVAL control) | EEL Area, AVG [3, 6] [mm^2] | IEL Area, AVG [3, 6] [mm2] | EEL Area, individual vessel section [3, 7] | IEL Area, individual vessel section [3, 7] | IC50 [1, 8] [nM]
1 | Cc1c2oc3c(C)ccc(C(=O)N[C@@H]4C(=O)N[C@H](C(C)C)C(=O)N5CCC[C@H]5C(=O)N(C)CC(=O)N(C)[C@@H](C(C)C)C(=O)O[C@@H]4C)c3nc-2c(C(=O)N[C@@H]2C(=O)N[C@H](C(C)C)C(=O)N3CCC[C@H]3C(=O)N(C)CC(=O)N(C)[C@@H](C(C)C)C(=O)O[C@@H]2C)c(N)c1=O [actinomycin D] (I: T[dV]P[Sar][NMeV] / II: T[dV]P[Sar][NMeV]; ester I:1-I:C, II:1-II:C; linker I:N-II:N via Actinocin(9to1)) | 1 | 36.8 +/− 9.7% | 51.8 +/− 13.8% | 0.49 +/− 0.14 | 32.3+/−11.7% | 54.1 +/− 11.7% | 0.46 +/− 0.08 | statistically significantly greater | 7.486 | 13.18 | 1.076 | 8.5425 | 7.4727 | 7.4498 mm^2 and 8.2509 mm^2 and 7.7342 mm^2 and 7.9207 mm^2 and 6.9926 mm^2 and 8.3883 mm^2 and 7.8546 mm^2 and 9.2545 mm^2 and 9.2515 mm^2 and 8.7854 mm^2 and 9.5164 mm^2 and 9.1504 mm^2 and 9.6679 mm^2 and 9.1237 mm^2 and 9.9849 mm^2 and 9.4765 mm^2 and 7.4424 mm^2 and 9.1462 mm^2 and 8.9504 mm^2 and 8.9117 mm^2 and 8.7533 mm^2 and 7.3249 mm^2 and 7.1061 mm^2 and 8.5830 mm^2 | 6.3785 mm2 and 7.5206 mm2 and 6.9992 mm2 and 6.9632 mm2 and 6.0418 mm2 and 7.4794 mm2 and 6.2324 mm2 and 8.3785 mm2 and 8.5819 mm2 and 8.0964 mm2 and 8.6879 mm2 and 8.0914 mm2 and 8.7181 mm2 and 8.0273 mm2 and 8.5222 mm2 and 8.3796 mm2 and 6.4219 mm2 and 7.7757 mm2 and 7.5392 mm2 and 7.6573 mm2 and 6.9749 mm2 and 6.2815 mm2 and 5.9760 mm2 and 7.6195 mm2 | –
2 | CC(=O)O[C@@]12CO[C@@H]1C[C@H](O)[C@@]1(C)C(=O)[C@H](O)C3=C(C)[C@@H](OC(=O)[C@H](O)[C@@H](NC(=O)OC(C)(C)C)c4ccccc4)C[C@@](O)([C@@H](OC(=O)c4ccccc4)[C@H]21)C3(C)C [docetaxel] | – | – | – | – | – | – | – | – | – | – | – | – | – | – | – | 1000
3 | CO[C@@]12[C@H](COC(N)=O)C3=C(C(=O)C(C)=C(N)C3=O)N1C[C@@H]1N[C@@H]12 [mitomycin] | – | – | – | – | – | – | – | – | – | – | – | – | – | – | – | 50000

Source: US7651695B2, “Medicated stents for the treatment of vascular disease” (Advanced Cardiovascular Systems, Inc., priority 2001, dated 2010)
